Data reported in patent publication US20230212222A1 (ANYGEN CO., LTD., priority 2020, published 2023).
Square brackets hold non-standard residues; d marks the D form. Peptide text beside a SMILES is read from it. * marks the point of attachment. His(Trt) = N[C@@H](Cc1cn(C(c2ccccc2)(c2ccccc2)c2ccccc2)cn1)C(=O)O; His(τ-CHPh2) = N[C@@H](Cc1cn(C(c2ccccc2)c2ccccc2)cn1)C(=O)O; Biotin = O=C1N[C@H]2[C@H](CS[C@H]2CCCCC(=O)*)N1; dPhe(4-CF3) = N[C@H](Cc1ccc(C(F)(F)F)cc1)C(=O)O; Tyr(3-NH2) = Nc1cc(C[C@H](N)C(=O)O)ccc1O; dPhe(4-Me) = Cc1ccc(C[C@@H](N)C(=O)O)cc1; Phe(4-Me) = Cc1ccc(C[C@H](N)C(=O)O)cc1; d2Nal = N[C@H](Cc1ccc2ccccc2c1)C(=O)O; d3Pal = N[C@H](Cc1cccnc1)C(=O)O; Octanoyl = CCCCCCCC(=O)*; Orn = NCCC[C@H](N)C(=O)O; Boc = CC(C)(C)OC(=O)*

Legend:
[1] = target: T1, GPR39 (Homo sapiens, UniProt O43194); assay: luciferase assay system (SRE luciferase reporter gene) for GPR39 in CV-1 cells; settings: for EC50: EC50, CV-1 cells, GPR39 and SRE luciferase adenovirus, treated 6 hours, luminometer
T1 sequence (O43194 1-453): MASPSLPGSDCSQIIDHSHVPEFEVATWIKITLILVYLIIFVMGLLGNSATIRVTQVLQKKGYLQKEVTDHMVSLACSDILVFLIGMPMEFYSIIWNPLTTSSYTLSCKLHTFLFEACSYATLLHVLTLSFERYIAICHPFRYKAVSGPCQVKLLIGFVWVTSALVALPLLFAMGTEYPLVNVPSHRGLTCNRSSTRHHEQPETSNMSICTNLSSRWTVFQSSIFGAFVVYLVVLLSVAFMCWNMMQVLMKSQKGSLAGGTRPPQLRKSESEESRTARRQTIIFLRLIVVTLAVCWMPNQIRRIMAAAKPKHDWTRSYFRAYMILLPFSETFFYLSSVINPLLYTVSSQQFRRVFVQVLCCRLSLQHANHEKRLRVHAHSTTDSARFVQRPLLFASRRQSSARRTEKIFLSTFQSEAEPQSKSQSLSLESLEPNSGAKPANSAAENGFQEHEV
Experimental: (§1) Specifically, the fibroblast cell line CV-1 (1×10^5 cells/ml, Korea Cell Line Bank) was cultured in a 96 well cell culture plate for 24 hours, and then treated with GPR39 inserted into adenovirus and SRE (serum response element) luciferase at 50 MOI (multiplicity of infection) and 25 MOI virus for 3 hours, respectively, and then cultured for 24 hours.

[2] = target: T1, GPR39
Experimental: as §1

| ECmax (-fold induction over basal) [2] | EC50 [1] [nM] | SMILES | activity level for GPR39 (in words) ([1]; comment on Table 3) |
| --- | --- | --- | --- |
| 18.3 ± 2.2 -fold induction over basal | – | CCCCCCCC(=O)NCCCC[C@H](NC(=O)[C@@H](N)Cc1cn(C(c2ccccc2)c2ccc(O)cc2)cn1)C(=O)N[C@H](Cc1ccc(C)cc1)C(=O)N[C@@H](Cc1ccc(O)cc1)C(=O)O (stereo partly drawn) [HKFY-65, ((2R)-2-((2S)-2-((2S)-2-amino-3-(1-((4-hydroxyphenyl)(phenyl)methyl)-1H-imidazol-4-yl)propanamido)-6-octanamidohexanamido)-3-(p-tolyl)propanoyl)-L-tyrosine] | higher activity level than other HJKFY derivatives |
| 20.2 ± 3.5 -fold induction over basal | 11 ± 1 | CCCCCCCC(=O)NCCCC[C@H](NC(=O)[C@@H](N)Cc1cn(C(c2ccccc2)c2ccccc2)cn1)C(=O)N[C@H](Cc1ccc(C)cc1)C(=O)N[C@@H](Cc1ccc(O)cc1)C(N)=O [HKFY-66, N-((S)-5-((S)-2-amino-3-(1-benzhydryl-1H-imidazol-4-yl)propanamido)-6-(((R)-1-(((S)-1-amino-3-(4-hydroxyphenyl)-1-oxopropan-2-yl)amino)-1-oxo-3-(p-tolyl)propan-2-yl)amino)-6-oxohexyl)octanamide] (H-[His(τ-CHPh2)]K(Octanoyl)[dPhe(4-Me)]Y-NH2) | – |
| 10.1 ± 1.6 -fold induction over basal | 20 ± 1 | CCCCCCCC(=O)NCCCC[C@H](NC(=O)[C@@H](N)Cc1cn(C(c2ccccc2)c2ccccc2)cn1)C(=O)N[C@H](Cc1ccc(C)cc1)C(=O)N[C@@H](Cc1ccc(O)c(N)c1)C(=O)O [HKFY-70, (S)-2-((R)-2-((S)-2-((S)-2-amino-3-(1-benzhydryl-1H-imidazol-4-yl)propanamido)-6-octanamidohexanamido)-3-(p-tolyl)propanamido)-3-(3-amino-4-hydroxyphenyl)propanoic acid] (H-[His(τ-CHPh2)]K(Octanoyl)[dPhe(4-Me)][Tyr(3-NH2)]-OH) | – |
| 16.4 ± 2.51 -fold induction over basal | 12 ± 3 | CCCCCCCC(=O)NCCC[C@H](NC(=O)[C@@H](N)Cc1cn(C(c2ccccc2)c2ccccc2)cn1)C(=O)N[C@H](Cc1ccc(C)cc1)C(=O)N[C@@H](Cc1ccc(O)cc1)C(=O)O [HKFY-71, ((R)-2-((S)-2-((S)-2-amino-3-(1-benzhydryl-1H-imidazol-4-yl)propanamido)-5-octanamidopentanamido)-3-(p-tolyl)propanoyl)-L-tyrosine] (H-[His(τ-CHPh2)][Orn](Octanoyl)[dPhe(4-Me)]Y-OH) | – |
| 14.2 ± 3.75 -fold induction over basal | 7 ± 1 | CCCCCCCC(=O)NCCCC[C@H](NC(=O)[C@@H](N)Cc1cn(C(c2ccccc2)(c2ccccc2)c2ccccc2)cn1)C(=O)N[C@H](Cc1ccc(C(F)(F)F)cc1)C(=O)N[C@@H](Cc1ccc(O)cc1)C(=O)O [HKFY-76, ((R)-2-((S)-2-((S)-2-amino-3-(1-trityl-1H-imidazol-4-yl)propanamido)-6-octanamidohexanamido)-3-(4-(trifluoromethyl)phenyl)propanoyl)-L-tyrosine] (H-[His(Trt)]K(Octanoyl)[dPhe(4-CF3)]Y-OH) | – |
| 11.6 ± 2.14 -fold induction over basal | 7 ± 2 | CCCCCCCC(=O)NCCCC[C@H](NC(=O)[C@@H](N)Cc1cn(Cc2ccc(-c3ccccc3-c3nnn[nH]3)cc2)cn1)C(=O)N[C@H](Cc1ccc(C)cc1)C(=O)N[C@@H](Cc1ccc(O)cc1)C(=O)O [HKFY-77, ((R)-2-((S)-2-((S)-3-(1-((2′-(1H-tetrazol-5-yl)-[1,1′-biphenyl]-4-yl)methyl)-1H-imidazol-4-yl)-2-aminopropanamido)-6-octanamidohexanamido)-3-(p-tolyl)propanoyl)-L-tyrosine] | – |

More lines, now with the values behind:

| SMILES | ECmax (-fold induction over basal) [2] | EC50 [1] [nM] | activity level for GPR39 (in words) ([1]; comment on Table 3) |
| --- | --- | --- | --- |
| CCCCCCCC(=O)NCCCC[C@H](NC(=O)[C@H](Cc1cn(C(c2ccccc2)c2ccccc2)cn1)NC(=O)CCCC[C@@H]1SC[C@@H]2NC(=O)N[C@@H]21)C(=O)N[C@@H](Cc1ccc(C)cc1)C(=O)N[C@@H](Cc1ccc(O)cc1)C(=O)O [HKFY-72, ((S)-2-((S)-2-((S)-3-(1-benzhydryl-1H-imidazol-4-yl)-2-(5-((3aS,4S,6aR)-2-oxohexahydro-1H-thieno[3,4-d]imidazol-4-yl)pentanamido)propanamido)-6-octanamidohexanamido)-3-(p-tolyl)propanoyl)-L-tyrosine] (Biotin-[His(τ-CHPh2)]K(Octanoyl)[Phe(4-Me)]Y-OH) | 10.4 ± 1.12 -fold induction over basal | 11 ± 2 | – |
| CCCCCCCC(=O)NCCCC[C@H](NC(=O)[C@@H](N)Cc1cn(C(c2ccccc2)(c2ccccc2)c2ccccc2)cn1)C(=O)N[C@H](Cc1cccnc1)C(=O)N[C@@H](Cc1ccc(O)cc1)C(=O)O [HKFY-73, ((R)-2-((S)-2-((S)-2-amino-3-(1-trityl-1H-imidazol-4-yl)propanamido)-6-octanamidohexanamido)-3-(pyridin-3-yl)propanoyl)-L-tyrosine] (H-[His(Trt)]K(Octanoyl)[d3Pal]Y-OH) | 11.6 ± 2.3 -fold induction over basal | 23 ± 1 | – |
| CCCCCCCC(=O)NCCCC[C@H](NC(=O)[C@@H](N)Cc1cn(C(c2ccccc2)(c2ccccc2)c2ccccc2)cn1)C(=O)N[C@H](Cc1ccc2ccccc2c1)C(=O)N[C@@H](Cc1ccc(O)cc1)C(=O)O [HKFY-74, ((R)-2-((S)-2-((S)-2-amino-3-(1-trityl-1H-imidazol-4-yl)propanamido)-6-octanamidohexanamido)-3-(naphthalen-2-yl)propanoyl)-L-tyrosine] (H-[His(Trt)]K(Octanoyl)[d2Nal]Y-OH) | 18.8 ± 3.2 -fold induction over basal | 8 ± 1 | – |
| CCCCCCCC(=O)NCCCC[C@H](NC(=O)[C@H](Cc1c[nH]c2ccccc12)NC(=O)OC(C)(C)C)C(=O)N[C@H](Cc1ccc(C)cc1)C(=O)N[C@@H](Cc1ccc(O)cc1)C(=O)O [HKFY-78, ((R)-2-((S)-2-((S)-2-((tert-butoxycarbonyl)amino)-3-(1H-indol-3-yl)propanamido)-6-octanamidohexanamido)-3-(p-tolyl)propanoyl)-L-tyrosine] (Boc-WK(Octanoyl)[dPhe(4-Me)]Y-OH) | 11.4 ± 1.54 -fold induction over basal | 9 ± 1 | – |
